Series [1] deals with Sodium-dependent dopamine transporter (Homo sapiens) (UniProt Q01959). Particulars: Compound concentration 10.0 uM; call rule not given here.
Series [2] has as its target Sodium-dependent serotonin transporter (Homo sapiens) (UniProt P31645). Particulars: Compound concentration 10.0 uM.
Series [3] deals with Cysteinyl leukotriene receptor 1 (Homo sapiens) (UniProt Q9Y271). Briefly: Inhibition of Leukotriene, Cysteinyl CysLT1 at 10 µM in the Eurofins-Panlabs radioligand binding assay (Eurofins_assay_250460). Also noted: ligand concentration 0.3 nM, non-specific ligand with concentration 0.3 µM Leukotriene D4, incubation time 30 min, incubation temperature 25 °C. Particulars: Compound concentration 10.0 uM.
Cysteinyl leukotriene receptor 1 (Homo sapiens), sequence (Q9Y271 whole entry): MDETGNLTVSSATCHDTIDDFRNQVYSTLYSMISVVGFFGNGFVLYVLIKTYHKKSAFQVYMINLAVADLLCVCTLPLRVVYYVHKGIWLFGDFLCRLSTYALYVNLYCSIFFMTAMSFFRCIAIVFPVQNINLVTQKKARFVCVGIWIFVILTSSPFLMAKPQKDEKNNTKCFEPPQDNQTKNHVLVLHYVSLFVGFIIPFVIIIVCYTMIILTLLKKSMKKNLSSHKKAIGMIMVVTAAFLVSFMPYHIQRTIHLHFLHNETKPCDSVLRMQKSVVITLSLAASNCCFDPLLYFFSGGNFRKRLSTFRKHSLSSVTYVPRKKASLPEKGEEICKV

Series [4] concerns the target T1, 5-hydroxytryptamine receptor 3A (Homo sapiens) (UniProt P46098).
T1 sequence (whole entry): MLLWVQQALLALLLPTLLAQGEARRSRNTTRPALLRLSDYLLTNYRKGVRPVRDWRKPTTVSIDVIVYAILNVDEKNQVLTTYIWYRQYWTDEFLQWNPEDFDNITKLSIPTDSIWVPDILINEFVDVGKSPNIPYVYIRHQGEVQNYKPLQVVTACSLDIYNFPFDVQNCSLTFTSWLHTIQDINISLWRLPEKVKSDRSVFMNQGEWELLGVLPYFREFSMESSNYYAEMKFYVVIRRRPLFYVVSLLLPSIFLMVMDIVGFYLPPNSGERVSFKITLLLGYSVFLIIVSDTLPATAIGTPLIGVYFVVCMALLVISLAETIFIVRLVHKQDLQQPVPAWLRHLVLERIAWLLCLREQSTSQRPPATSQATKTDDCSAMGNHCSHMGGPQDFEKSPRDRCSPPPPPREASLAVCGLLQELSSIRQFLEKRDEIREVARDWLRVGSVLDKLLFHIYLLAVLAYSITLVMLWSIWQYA
Briefly: Inhibition of Serotonin (5-Hydroxytryptamine) 5-HT3 at 10 µM in the Eurofins-Panlabs radioligand binding assay (Eurofins_assay_271910). Also noted: ligand concentration 0.69 nM. Particulars: Compound concentration 10.0 uM.

In series [5] the target is Epidermal growth factor receptor (Homo sapiens) (UniProt P00533). Briefly: Inhibition of Protein Tyrosine Kinase, EGF Receptor at 10 µM in the Eurofins-Panlabs enzyme assay (Eurofins_assay_170020). More on the design: substrate with concentration. Particulars: Compound concentration […].
The next series addresses CYP3A4 (Homo sapiens, UniProt P08684). In words: CYP450, 3A4 Eurofins-Panlabs enzyme assay. Conditions: compound concentration 10 uM.
Series [6] concerns the target Matrix metalloproteinase-9 (Homo sapiens) (UniProt P14780). In words: Inhibition of Peptidase, Matrix Metalloproteinase-9 (MMP-9) at 10 µM in the Eurofins-Panlabs enzyme assay (Eurofins_assay_114910). Particulars: Compound concentration 10.0 uM. Also noted: substrate with concentration.
The target in series [7] is Mitogen-activated protein kinase 1 (Homo sapiens) (UniProt P28482). In words: Inhibition of Protein Serine/Threonine Kinase, MAPK1 (ERK2) at 10 µM in the Eurofins-Panlabs enzyme assay (Eurofins_assay_171120). Also noted: substrate with concentration. Conditions: Compound concentration 10.0 uM.
Mitogen-activated protein kinase 1 (Homo sapiens), sequence (P28482 whole entry): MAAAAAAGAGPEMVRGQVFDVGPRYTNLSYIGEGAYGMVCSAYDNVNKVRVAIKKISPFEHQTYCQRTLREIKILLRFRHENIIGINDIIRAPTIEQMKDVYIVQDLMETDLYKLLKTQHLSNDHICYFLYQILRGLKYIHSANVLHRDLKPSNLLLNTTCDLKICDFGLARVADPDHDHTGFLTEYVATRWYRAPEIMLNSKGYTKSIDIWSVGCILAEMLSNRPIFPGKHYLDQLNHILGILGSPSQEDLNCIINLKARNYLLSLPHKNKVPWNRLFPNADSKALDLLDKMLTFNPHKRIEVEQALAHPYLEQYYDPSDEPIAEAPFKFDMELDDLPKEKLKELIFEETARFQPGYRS
Series [8] has as its target Mitogen-activated protein kinase 3 (Homo sapiens) (UniProt P27361). Briefly: Inhibition of Protein Serine/Threonine Kinase, MAPK3 (ERK1) at 10 µM in the Eurofins-Panlabs enzyme assay (Eurofins_assay_171000). Particulars: Compound concentration 10.0 uM.
The target in series [9] is T2, D(4) dopamine receptor (Homo sapiens) (UniProt P21917).
T2 sequence (whole entry): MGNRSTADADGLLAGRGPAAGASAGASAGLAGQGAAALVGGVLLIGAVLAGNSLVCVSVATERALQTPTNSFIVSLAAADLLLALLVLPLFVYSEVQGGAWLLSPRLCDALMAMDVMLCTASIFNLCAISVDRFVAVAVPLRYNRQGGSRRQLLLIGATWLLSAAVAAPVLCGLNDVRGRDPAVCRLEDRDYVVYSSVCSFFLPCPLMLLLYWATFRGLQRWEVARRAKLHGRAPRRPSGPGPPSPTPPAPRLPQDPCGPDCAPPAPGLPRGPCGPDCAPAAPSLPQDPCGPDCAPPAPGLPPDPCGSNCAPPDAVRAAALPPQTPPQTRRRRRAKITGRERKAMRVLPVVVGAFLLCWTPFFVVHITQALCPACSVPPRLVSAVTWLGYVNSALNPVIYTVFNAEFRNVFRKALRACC
In words: Inhibition of Dopamine D4.2 at 10 µM in the Eurofins-Panlabs radioligand binding assay (Eurofins_assay_219900). Also noted: ligand concentration 0.5 nM. Conditions: Compound concentration 10.0 uM.

The next series has as its system Bacteria. Briefly: Beta-Lactamase Eurofins-Panlabs enzyme assay. More on the design: substrate with concentration. Conditions: Compound concentration 10.0 uM.
Series [10] deals with Vasoactive intestinal polypeptide receptor 1 (Homo sapiens) (UniProt P32241). In words: Inhibition of Vasoactive Intestinal Peptide VIP1 at 10 µM in the Eurofins-Panlabs radioligand binding assay (Eurofins_assay_287010). Conditions: Compound concentration 10.0 uM.
Vasoactive intestinal polypeptide receptor 1 (Homo sapiens), sequence (P32241 whole entry): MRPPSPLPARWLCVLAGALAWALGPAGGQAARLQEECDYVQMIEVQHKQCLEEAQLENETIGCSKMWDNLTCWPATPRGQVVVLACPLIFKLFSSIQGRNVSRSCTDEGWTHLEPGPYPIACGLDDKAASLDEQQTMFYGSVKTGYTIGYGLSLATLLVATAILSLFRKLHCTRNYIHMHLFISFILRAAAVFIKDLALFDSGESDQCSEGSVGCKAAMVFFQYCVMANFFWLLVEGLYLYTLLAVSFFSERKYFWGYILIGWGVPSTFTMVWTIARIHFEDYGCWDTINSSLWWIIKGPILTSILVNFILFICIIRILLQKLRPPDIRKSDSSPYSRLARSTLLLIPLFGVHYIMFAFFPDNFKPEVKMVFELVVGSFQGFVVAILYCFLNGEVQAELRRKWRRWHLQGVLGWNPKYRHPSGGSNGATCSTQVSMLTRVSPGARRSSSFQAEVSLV
The species named for series [11] is Rattus norvegicus. Briefly: Inhibition of Glycine, Strychnine-Sensitive at 10 µM in the Eurofins-Panlabs radioligand binding assay (Eurofins_assay_239000). Particulars: Compound concentration 10.0 uM.
The species entered for series [12] is Rattus norvegicus. In words: Inhibition of Imidazoline I2, Central at 10 µM in the Eurofins-Panlabs radioligand binding assay (Eurofins_assay_241000). More on the design: ligand concentration 2 nM. Particulars: Compound concentration 10.0 uM.
Series [13] addresses T3, Muscarinic acetylcholine receptor M2 (Homo sapiens) (UniProt P08172).
T3 sequence (whole entry): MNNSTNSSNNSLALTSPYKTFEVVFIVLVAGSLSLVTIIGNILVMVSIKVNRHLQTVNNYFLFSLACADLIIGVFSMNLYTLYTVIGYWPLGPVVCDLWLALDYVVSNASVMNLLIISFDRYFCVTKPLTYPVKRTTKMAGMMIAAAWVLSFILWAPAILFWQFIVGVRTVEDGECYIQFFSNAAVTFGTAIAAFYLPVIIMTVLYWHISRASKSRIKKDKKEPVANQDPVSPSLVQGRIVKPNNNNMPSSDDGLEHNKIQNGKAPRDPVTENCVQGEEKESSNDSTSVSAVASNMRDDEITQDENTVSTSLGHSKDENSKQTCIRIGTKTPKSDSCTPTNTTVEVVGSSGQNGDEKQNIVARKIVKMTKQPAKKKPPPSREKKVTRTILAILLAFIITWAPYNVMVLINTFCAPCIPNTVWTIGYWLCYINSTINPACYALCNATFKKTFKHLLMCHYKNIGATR
Particulars: Compound concentration 10.0 uM.

The target in series [14] is Neuropeptide Y receptor type 1 (Homo sapiens) (UniProt P25929). In words: Inhibition of Neuropeptide Y Y1 at 10 µM in the Eurofins-Panlabs radioligand binding assay (Eurofins_assay_257010). Particulars: Compound concentration 10.0 uM.
Neuropeptide Y receptor type 1 (Homo sapiens), sequence (P25929 whole entry): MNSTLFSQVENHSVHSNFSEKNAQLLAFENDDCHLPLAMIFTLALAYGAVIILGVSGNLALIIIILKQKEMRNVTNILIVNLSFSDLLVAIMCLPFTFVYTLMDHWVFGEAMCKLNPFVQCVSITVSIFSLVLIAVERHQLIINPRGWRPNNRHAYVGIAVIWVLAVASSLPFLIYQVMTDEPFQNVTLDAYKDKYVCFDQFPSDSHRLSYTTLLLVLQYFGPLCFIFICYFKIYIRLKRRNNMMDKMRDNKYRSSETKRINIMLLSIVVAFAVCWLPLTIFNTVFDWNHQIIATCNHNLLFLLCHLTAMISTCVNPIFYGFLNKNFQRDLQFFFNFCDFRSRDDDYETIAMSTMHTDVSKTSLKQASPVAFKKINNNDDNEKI
For series [15], the target named is ATP-sensitive inward rectifier potassium channel 11 (Cricetulus griseus) (UniProt A0A3L7HHE1). In words: Inhibition of Potassium Channel [KATP] at 10 µM in the Eurofins-Panlabs radioligand binding assay (Eurofins_assay_265600). Particulars: Cricetinae; Compound concentration 10.0 uM.
ATP-sensitive inward rectifier potassium channel 11 (Cricetulus griseus), sequence (A0A3L7HHE1 as listed by the source): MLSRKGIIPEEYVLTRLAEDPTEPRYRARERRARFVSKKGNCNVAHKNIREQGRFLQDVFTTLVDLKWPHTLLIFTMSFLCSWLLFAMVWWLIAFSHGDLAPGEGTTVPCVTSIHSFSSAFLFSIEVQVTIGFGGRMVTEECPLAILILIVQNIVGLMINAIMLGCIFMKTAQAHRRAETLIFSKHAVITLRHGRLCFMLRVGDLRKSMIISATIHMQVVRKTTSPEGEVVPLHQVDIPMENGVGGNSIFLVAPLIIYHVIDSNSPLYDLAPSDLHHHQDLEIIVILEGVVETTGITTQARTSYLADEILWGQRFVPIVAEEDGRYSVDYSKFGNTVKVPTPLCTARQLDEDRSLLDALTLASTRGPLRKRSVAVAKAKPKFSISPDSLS
In series [16] the target is Sigma intracellular receptor 2 (Homo sapiens, UniProt Q5BJF2). Briefly: Inhibition of Sigma 2 at 10 µM in the Eurofins-Panlabs radioligand binding assay (Eurofins_assay_278200). More on the design: ligand concentration 3 nM. Conditions: Rattus norvegicus; Compound concentration 10.0 uM.
Sigma intracellular receptor 2, sequence (Q5BJF2 whole entry): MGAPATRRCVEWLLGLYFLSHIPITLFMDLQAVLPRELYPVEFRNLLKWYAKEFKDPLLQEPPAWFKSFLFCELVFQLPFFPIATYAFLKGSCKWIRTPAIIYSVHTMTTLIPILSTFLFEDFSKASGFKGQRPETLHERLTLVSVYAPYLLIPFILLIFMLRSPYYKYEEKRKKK

Molecules are shown by their SMILES.

Matrix metalloproteinase-9 (Homo sapiens), sequence (P14780 whole entry): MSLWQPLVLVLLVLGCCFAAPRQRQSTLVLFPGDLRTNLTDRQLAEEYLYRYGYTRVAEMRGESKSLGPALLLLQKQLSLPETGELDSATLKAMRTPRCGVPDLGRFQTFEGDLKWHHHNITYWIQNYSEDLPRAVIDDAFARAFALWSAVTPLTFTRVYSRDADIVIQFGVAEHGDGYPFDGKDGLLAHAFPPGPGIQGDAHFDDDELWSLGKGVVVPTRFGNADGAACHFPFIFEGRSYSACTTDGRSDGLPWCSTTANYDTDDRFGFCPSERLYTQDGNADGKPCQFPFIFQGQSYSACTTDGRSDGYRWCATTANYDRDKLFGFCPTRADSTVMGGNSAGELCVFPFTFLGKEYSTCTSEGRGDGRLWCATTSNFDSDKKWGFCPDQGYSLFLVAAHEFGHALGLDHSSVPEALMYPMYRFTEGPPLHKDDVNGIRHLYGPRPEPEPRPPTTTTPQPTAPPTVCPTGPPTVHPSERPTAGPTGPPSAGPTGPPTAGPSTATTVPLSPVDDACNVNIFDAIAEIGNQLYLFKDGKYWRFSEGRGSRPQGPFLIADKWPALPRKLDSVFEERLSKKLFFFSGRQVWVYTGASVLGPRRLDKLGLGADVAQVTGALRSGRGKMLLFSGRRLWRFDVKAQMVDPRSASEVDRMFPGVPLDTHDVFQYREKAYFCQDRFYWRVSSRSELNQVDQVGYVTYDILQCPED
Mitogen-activated protein kinase 3 (Homo sapiens), sequence (P27361 whole entry): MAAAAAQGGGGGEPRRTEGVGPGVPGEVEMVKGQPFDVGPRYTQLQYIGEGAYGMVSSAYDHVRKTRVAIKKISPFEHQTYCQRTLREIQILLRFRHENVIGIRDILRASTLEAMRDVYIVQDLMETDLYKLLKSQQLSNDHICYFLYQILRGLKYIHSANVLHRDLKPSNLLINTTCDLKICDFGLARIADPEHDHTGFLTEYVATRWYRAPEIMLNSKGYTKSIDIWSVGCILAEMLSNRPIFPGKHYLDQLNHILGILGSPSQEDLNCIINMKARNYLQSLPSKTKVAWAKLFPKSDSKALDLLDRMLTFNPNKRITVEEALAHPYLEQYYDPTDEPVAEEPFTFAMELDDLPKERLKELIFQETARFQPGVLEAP
Sodium-dependent serotonin transporter (Homo sapiens), sequence (P31645 whole entry, looked up): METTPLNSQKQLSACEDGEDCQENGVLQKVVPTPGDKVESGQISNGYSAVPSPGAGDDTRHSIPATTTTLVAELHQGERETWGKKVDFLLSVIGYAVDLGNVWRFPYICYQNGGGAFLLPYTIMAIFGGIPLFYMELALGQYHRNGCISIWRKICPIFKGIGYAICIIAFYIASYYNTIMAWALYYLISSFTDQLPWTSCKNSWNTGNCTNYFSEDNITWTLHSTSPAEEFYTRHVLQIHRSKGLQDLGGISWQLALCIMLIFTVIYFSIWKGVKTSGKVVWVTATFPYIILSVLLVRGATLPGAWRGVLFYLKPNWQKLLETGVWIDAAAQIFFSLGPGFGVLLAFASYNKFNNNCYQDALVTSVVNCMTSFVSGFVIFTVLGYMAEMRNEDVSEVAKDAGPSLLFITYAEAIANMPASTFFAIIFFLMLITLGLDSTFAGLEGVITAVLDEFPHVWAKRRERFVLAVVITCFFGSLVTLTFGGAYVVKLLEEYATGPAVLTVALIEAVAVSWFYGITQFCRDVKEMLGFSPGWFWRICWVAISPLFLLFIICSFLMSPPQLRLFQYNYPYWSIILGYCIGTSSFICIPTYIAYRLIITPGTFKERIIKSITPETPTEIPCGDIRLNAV
CYP3A4, sequence (P08684 whole entry): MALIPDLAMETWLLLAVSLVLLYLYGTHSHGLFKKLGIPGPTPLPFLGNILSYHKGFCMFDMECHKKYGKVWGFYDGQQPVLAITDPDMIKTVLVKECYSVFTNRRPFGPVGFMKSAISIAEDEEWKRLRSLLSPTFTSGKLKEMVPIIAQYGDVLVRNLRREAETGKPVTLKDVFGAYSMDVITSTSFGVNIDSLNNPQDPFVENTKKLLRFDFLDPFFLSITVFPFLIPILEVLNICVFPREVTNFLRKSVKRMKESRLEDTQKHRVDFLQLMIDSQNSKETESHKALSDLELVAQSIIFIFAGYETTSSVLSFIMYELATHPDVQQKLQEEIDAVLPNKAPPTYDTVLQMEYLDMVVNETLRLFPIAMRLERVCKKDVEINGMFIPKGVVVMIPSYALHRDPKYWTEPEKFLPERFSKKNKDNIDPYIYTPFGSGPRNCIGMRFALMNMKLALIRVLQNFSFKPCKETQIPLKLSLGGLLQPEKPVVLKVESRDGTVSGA
Sodium-dependent dopamine transporter (Homo sapiens), sequence (Q01959 whole entry): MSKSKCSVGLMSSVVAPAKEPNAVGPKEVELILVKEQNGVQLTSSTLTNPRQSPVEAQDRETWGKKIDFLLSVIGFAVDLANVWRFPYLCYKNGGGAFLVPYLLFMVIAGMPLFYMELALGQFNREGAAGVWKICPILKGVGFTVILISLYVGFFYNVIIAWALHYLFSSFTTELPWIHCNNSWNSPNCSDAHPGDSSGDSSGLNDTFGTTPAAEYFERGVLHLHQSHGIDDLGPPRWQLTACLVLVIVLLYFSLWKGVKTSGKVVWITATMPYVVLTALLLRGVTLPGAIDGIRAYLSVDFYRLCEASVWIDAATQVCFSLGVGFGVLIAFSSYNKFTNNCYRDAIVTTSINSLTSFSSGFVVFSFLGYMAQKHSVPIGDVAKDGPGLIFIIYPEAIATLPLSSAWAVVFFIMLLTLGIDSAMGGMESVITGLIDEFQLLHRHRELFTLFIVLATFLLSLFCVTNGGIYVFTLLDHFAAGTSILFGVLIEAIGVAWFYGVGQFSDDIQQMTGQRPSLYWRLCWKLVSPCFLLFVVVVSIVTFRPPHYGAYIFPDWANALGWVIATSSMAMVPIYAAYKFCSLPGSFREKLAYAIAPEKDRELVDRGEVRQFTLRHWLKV

Consider `O=C(NCc1ncc(C(F)(F)F)cc1Cl)c1ccc2c(c1)C1(CCS(=O)(=O)CC1)[C@@H](C1CC1)N2S(=O)(=O)c1ccc(F)cc1` [BAY-786], for which the inhibition – broadly, the relative decrease from the control value, in per cent – in series [1] is -4.64%.
`O=C(NCc1ncc(C(F)(F)F)cc1Cl)c1ccc2c(c1)C1(CCS(=O)(=O)CC1)[C@H](C1CC1)N2S(=O)(=O)c1ccc(F)cc1` [BAY-784]: the inhibition was 10% in [2]; 4% in [3]; 19% in series [4]; -8% in [5]; 3% in series [6]; 53% in series [7]. Further, the inhibition was 87% in series [8]; 11% in [9]; -2% with Bacteria; 2% in series [10]; 4% in the series listed under Rattus norvegicus [11]; 10% in the series listed under Rattus norvegicus [12]. Moreover, the inhibition in [13] is -3%; in series [14] it was 17%; in [15], 0%; in series [16], 20%. At CYP3A4, the inhibition at 10 µM was 38% (not active).

The record behind these values is ChEMBL document CHEMBL4507266, “Data for DCP probe BAY-784” (2021).
